Measurements from US20140288040A1, “SUBSTITUTED BENZYLAMINE COMPOUNDS, THEIR USE IN MEDICINE, AND IN PARTICULAR THE TREATMENT OF HEPATITIS C VIRUS (HCV) INFECTION” (ASTEX THERAPEUTICS LIMITED, priority 2011, published 2014).
Counter-ions that a name gives are not always drawn.

molecular target: T1, HCV NS3 protease (full length NS34a) (Hepatitis C virus genotype 1b, UniProt P26663); assay: HCV NS3 protease assay (FRET, full length NS34a); assay type: biochemical; conditions: IC50 values of 10-150 μM against the protease activity of the full length NS34a, or at least 40% inhibition of protease activity at a concentration of 100 μM
T1 construct: The protease activity of the full length NS34a was measured using a FRET-based assay; made in house
T1 sequence (P26663 1658-1711): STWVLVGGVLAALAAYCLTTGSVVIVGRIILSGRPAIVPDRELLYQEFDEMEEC
T1 sequence (P26663 1027-1657): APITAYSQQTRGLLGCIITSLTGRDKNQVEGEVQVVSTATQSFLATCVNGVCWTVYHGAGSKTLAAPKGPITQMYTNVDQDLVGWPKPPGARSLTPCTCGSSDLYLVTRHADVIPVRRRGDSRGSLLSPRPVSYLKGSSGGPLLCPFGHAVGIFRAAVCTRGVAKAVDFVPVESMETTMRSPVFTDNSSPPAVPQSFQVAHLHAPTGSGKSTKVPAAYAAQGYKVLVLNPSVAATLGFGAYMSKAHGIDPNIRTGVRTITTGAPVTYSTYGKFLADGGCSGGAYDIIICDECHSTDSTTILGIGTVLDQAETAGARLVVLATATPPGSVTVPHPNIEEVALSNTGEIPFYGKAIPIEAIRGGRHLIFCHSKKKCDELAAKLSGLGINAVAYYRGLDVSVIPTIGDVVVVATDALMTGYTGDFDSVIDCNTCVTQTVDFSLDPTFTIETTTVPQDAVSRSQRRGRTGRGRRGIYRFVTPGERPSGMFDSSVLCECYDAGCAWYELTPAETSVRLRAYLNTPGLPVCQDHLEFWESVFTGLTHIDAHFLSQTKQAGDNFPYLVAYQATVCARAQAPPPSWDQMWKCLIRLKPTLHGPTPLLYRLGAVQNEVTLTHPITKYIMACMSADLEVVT
In short: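 Full-length NS34a incubated with compound and an NS4AB cleavage-site FRET peptide (QXL520 quencher, 5-FAMsp fluorophore) in 50 mM Tris pH8, 20 mM DTT, 1% CHAPS, 10% glycerol, 5% DMSO. Fluorescence followed for 30 minutes at room temperature; IC50 from initial rates of replicate progress curves.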

| IC50 [nM] | Structure (SMILES) |
| --- | --- |
| 10000 to 150000 | CC[C@@H](N[C@@H](CC(N)=O)C(C)C)c1ccc(Cl)c(Oc2ccccc2)c1F [Example 142] |
| 10000 to 150000 | CC[C@@H](N[C@@H](C)CC(=O)NCC(=O)OC)c1ccc(Cl)c(Oc2ccccc2)c1F [Example 159] |
| 10000 to 150000 | CCC(NCc1ccc[nH]1)c1ccc(F)c(Oc2ccccc2)c1F (centres unmarked) [Example 291] |
| 10000 to 150000 | NCCC(N)c1ccc(F)c(Oc2ccccc2)c1F (centres unmarked) [Example 94] |
| 10000 to 150000 | C[C@H](CC(N)=O)N[C@H](CC1CCOCC1)c1ccc(Cl)c(Oc2ccccc2)c1F [Example 257] |

| Structure (SMILES) | IC50 [nM] |
| --- | --- |
| CC[C@H](N[C@H](C)CC(N)=O)c1ccc(Cl)c(Oc2ccccc2)c1F [Example 80, (R)-3-[(S)-1-(4-Chloro-2-fluoro-3-phenoxy-phenyl)-propylamino]-butyramide.hydrochloride] | 10000 to 150000 |

same assay, conditions: protease activity of full length NS34a, FRET peptide substrate; read-out: Activity IC50

| Structure (SMILES) | IC50 [nM] |
| --- | --- |
| C[C@@H](CC(=O)NCCN)N[C@H](CC1CCOCC1)c1ccc(Cl)c(Oc2ccccc2)c1F [Example 277, (S)—N-(2-Amino-ethyl)-3-[(R)-1-(4-chloro-2-fluoro-3-phenoxy-phenyl)-2-(tetrahydro-pyran-4-yl)-ethylamino]-butyramide.dihydrochloride] | 110 |
| Fc1ccc(CNc2ccncc2)c(F)c1Oc1ccccc1 [Example 110, (2,4-Difluoro-3-phenoxy-benzyl)-pyridin-4-yl-amine.hydrochloride] | 2600 |
| CC[C@@H](N[C@@H](C)c1ccc[nH]c1=O)c1ccc(Cl)c(Oc2ccccc2)c1F (single isomer, unassigned) [Example 315] | 3500 |
| CC(N)c1ccc(F)c(Oc2ccccc2)c1F (centres unmarked) [Example 4] | 7000 |
| CC[C@@H](N[C@@H](C)CC(N)=O)c1ccc(Cl)c(Oc2ccc(N)c(C)c2)c1F [Example 127] | 110 |
| CCC(NC(C)C)c1ccc(F)c(Oc2ccccc2)c1F (centres unmarked) [Example 34] | 4000 |
| CC[C@@H](CC(N)=O)N[C@H](CC)c1ccc(Cl)c(Oc2ccccc2)c1F [Example 134B, (S)-3-[(R)-1-(4-Chloro-2-fluoro-3-phenoxy-phenyl)-propylamino]-pentanoic acid amide.hydrochloride] | 84 |
| CC[C@@H](N[C@@H](C)CC(=O)N[C@H]1CCNC1)c1ccc(Cl)c(Oc2ccccc2)c1F [Example 250] | 950 |
| CC[C@@H](N)c1ccc(Cl)c(Oc2ccncc2)c1F [Example 169] | 4800 |
| CC[C@@H](N)c1ccc(Cl)c(Oc2cccc(C#N)c2)c1F [Example 199] | 3800 |
| CC[C@@H](N[C@@H](C)CC(N)=O)c1ccc(F)c(Oc2ccccc2)c1F [Example 121] | 210 |
| C[C@H](CC(N)=O)N[C@H](c1ccc(Cl)c(Oc2ccccc2)c1F)C1CCOCC1 [Example 348] | 10000 |
| CC[C@@H](N)c1ccc(Cl)c(Oc2ccccc2)c1Cl [Example 262] | 5900 |
| CC[C@@H](N)c1ccc(Cl)c(Oc2ccnc(C)c2)c1F [Example 168] | 3700 |
| CC[C@@H](N)c1ccc(Cl)c(Oc2ccc3c(c2)CCO3)c1F [Example 193] | 960 |
| C[C@@H](CC(N)=O)N[C@@H](CCO)c1ccc(Cl)c(Oc2ccccc2)c1F [Example 350] | 2600 |

test system: HCV subgenomic replicon in Huh-7 cells; assay: Replicon assay, EC50 luciferase readout; assay type: cell-based, hepatitis C virus (HCV); conditions: Hepatitis C virus, Huh-7, 72 h, Huh-7 replicon cells, 72 h; single value, or second value of a pair x:y; read-out: Activity EC50 (μM) (EC50 luciferase readout)
Procedure: The activities of compounds of the invention against HCV in a cellular environment were analysed using a replicon assay as described below.
Thus, Huh-7 cells persistently infected with an HCV-RNA construct (Bartenschlager, R. Hepatitis C replicons: potential role for drug development. Nature Rev. Drug Discov. 1, 911-916 (2002)) comprising: 5′ and 3′ non-translated regions (NTR); the non-structural genes NS3 to NS5b; as well as the G418 drug resistance gene, neomycin, (for selection of cells carrying HCV replicon RNA) fused to the firefly Luciferase reporter gene (pFK13889luc-ubi-neoNS3-3′ET), were used to determine the cell based antiviral activity of compounds using luciferase activity as an indirect readout of HCV RNA load. In this assay […] huh-7 cells persistently infected with the HCV subgenomic replicon construct above were platedwell in a 96 well tissue culture plate. The cells were allowed to attach overnight in DMEM medium supplemented with 10% FBS 1% NEAA, and 250 μgml gentamicin. The following day the medium was replaced with 200 μlwell of fresh medium as described above lacking gentamicin. […] Plates were then incubated at 37° C. in an atmosphere of 5% CO2 and air for 72 h. […] The plate was then read at 535 nm (excitation) and 590 nm (emission) on a SpectraMax Gemini reader (Molecular Devices) to determine the number of viable cells by measuring the conversion of rezasurin (Alamar blue) to resorufin in response to mitochondrial activity. In order to determine the antiviral effect of these compounds EC50 values were determined by measuring the luciferase activity of the cells. Alamar blue solution was removed from the wells and replaced with 100 μlwell of medium along with 100 μlwell of Bright-Glo reagent and incubated at room temperature for 5 minutes before transferring 100 μlwell to a white bottom 96 well plate to read in a luminometer as described in the Bright-Glo Luciferase Assay System protocol (promega).

| Structure (SMILES) | EC50 [µM] |
| --- | --- |
| CC[C@H](N[C@H](C)CC(N)=O)c1ccc(Cl)c(Oc2ccccc2)c1F [Example 80, (R)-3-[(S)-1-(4-Chloro-2-fluoro-3-phenoxy-phenyl)-propylamino]-butyramide.hydrochloride] | > 10 |
| C[C@@H](CC(=O)NCCN)N[C@H](CC1CCOCC1)c1ccc(Cl)c(Oc2ccccc2)c1F [Example 277, (S)—N-(2-Amino-ethyl)-3-[(R)-1-(4-chloro-2-fluoro-3-phenoxy-phenyl)-2-(tetrahydro-pyran-4-yl)-ethylamino]-butyramide.dihydrochloride] | 1 |
| Fc1ccc(CNc2ccncc2)c(F)c1Oc1ccccc1 [Example 110, (2,4-Difluoro-3-phenoxy-benzyl)-pyridin-4-yl-amine.hydrochloride] | 2.3 |
| CC[C@@H](N[C@@H](C)c1ccc[nH]c1=O)c1ccc(Cl)c(Oc2ccccc2)c1F (single isomer, unassigned) [Example 315] | > 10 |
| CC(N)c1ccc(F)c(Oc2ccccc2)c1F (centres unmarked) [Example 4] | 13 |
| CC[C@@H](N[C@@H](C)CC(N)=O)c1ccc(Cl)c(Oc2ccc(N)c(C)c2)c1F [Example 127] | 0.014 |
| CC[C@@H](N[C@@H](C)CC(N)=O)c1ccc(Cl)c(Oc2nc3ccccc3s2)c1F.Cl [Example 435] | 3 |
| CCC(NC(C)C)c1ccc(F)c(Oc2ccccc2)c1F (centres unmarked) [Example 34] | 1.2 |
| CC[C@@H](N[C@@H](C)CC(N)=O)c1ccc(Cl)c(Oc2nc3cnccc3s2)c1F.Cl [Example 438] | > 3 |
| CC[C@@H](CC(N)=O)N[C@H](CC)c1ccc(Cl)c(Oc2ccccc2)c1F [Example 134B, (S)-3-[(R)-1-(4-Chloro-2-fluoro-3-phenoxy-phenyl)-propylamino]-pentanoic acid amide.hydrochloride] | 0.4 |
| CC[C@@H](N[C@@H](C)CC(=O)N[C@H]1CCNC1)c1ccc(Cl)c(Oc2ccccc2)c1F [Example 250] | 1 |
| CC[C@@H](N[C@@H](C)CC(N)=O)c1ccc(Cl)c(Oc2ccc(F)c(C(=O)N3CCOCC3)c2)c1F.Cl [Example 423] | 1.4 |
| CCNC(=O)CNC(=O)C[C@H](C)N[C@H](CC)c1ccc(Cl)c(Oc2ccccc2)c1F [Example 243] | 3.8 |
| CC[C@@H](N[C@@H](C)CC(N)=O)c1ccc(Cl)c(Oc2ccc(F)c(C(=O)N(C)C)c2)c1F.Cl [Example 425] | 0.35 |
| CC[C@@H](NC(C)(C)CC(N)=O)c1ccc(Cl)c(Oc2ccc(N)nc2)c1F [Example 460, 3-{[(1R)-1-{3-[(6-aminopyridin-3-yl)oxy]-4-chloro-2-fluorophenyl}propyl]amino}-3-methylbutanamide hydrochloride (1:1)] | 0.13 |
| CC[C@@H](N[C@@H](C)CC(N)=O)c1ccc(Cl)c(Oc2cnc(N)cn2)c1F.Cl [Example 429] | 3 |
| CC[C@@H](N[C@@H](C)CC(N)=O)c1ccc(Cl)c(Oc2ccc(F)c(C(=O)NC)c2)c1F.Cl [Example 421] | 0.4 |
| CC[C@H](NCCC(=O)NO)c1ccc(F)c(Oc2ccccc2)c1F [Example 302] | 6.9 |

| Structure (SMILES) | EC50 [µM] |
| --- | --- |
| CC[C@@H](N[C@@H](C)CC(N)=O)c1ccc(Cl)c(Oc2ccc(F)c(C(N)=O)c2)c1F.Cl [Example 419] | 0.82 |
| CC[C@@H](N[C@@H](C)CC(N)=O)c1ccc(Cl)c(Oc2ccc(NC(C)=O)nc2)c1Cl [Example 458] | 3.5 |
| C[C@@H](CC(N)=O)N[C@@H](c1ccc(Cl)c(Oc2ccccc2)c1F)C1CC1 [Example 459] | 0.63 |
| CC[C@@H](N[C@@H](C)CC(N)=O)c1ccc(Cl)c(Oc2ccc3c(c2)OCCO3)c1F.Cl [Example 410] | 0.31 |
| CC[C@H](NCC(N)=O)c1ccc(F)c(Oc2ccccc2)c1F [Example 301] | 26 |
| CC[C@@H](N[C@@H](C)CC(N)=O)c1ccc(Cl)c(Oc2ncccn2)c1F.Cl [Example 431] | > 3 |
| CC[C@@H](N[C@@H](C)CC(N)=O)c1ccc(Cl)c(Oc2ccc(N)cc2)c1F.Cl [Example 404] | 0.023 |
| CC[C@@H](N[C@@H](C)CC(N)=O)c1ccc(Cl)c(Oc2ccc(NC(C)=O)cc2)c1F [Example 405] | 0.3 |
| CC[C@@H](N[C@@H](C)CC(N)=O)c1ccc(Cl)c(Oc2ccc3c(c2)OCCN3)c1F.Cl [Example 409] | 0.02 |
| CC[C@@H](N[C@@H](C)CC(N)=O)c1ccc(Cl)c(Oc2ccccn2)c1F.Cl [Example 413] | 3 |
| CC[C@@H](N[C@@H](C)CC(N)=O)c1ccc(Cl)c(Oc2ccc(NC(=O)N(C)C)cc2)c1F.Cl [Example 407] | 0.11 |
| CC[C@@H](N[C@@H](C)CC(N)=O)c1ccc(Cl)c(Oc2ccccc2)c1C [Example 468] | > 3 |
| [2H]C([2H])([2H])C([2H])([2H])[C@@H](N[C@@H](C)CC(N)=O)c1ccc(Cl)c(Oc2ccccc2)c1F [Example 472] | > 3 |
| CC[C@@H](N[C@@H](C)CC(N)=O)c1ccc(Cl)c(Oc2ccc(Cl)cc2)c1F.Cl [Example 400] | 3 |
| CC[C@@H](N[C@@H](C)CC(N)=O)c1ccc(Cl)c(Oc2ncc(N)cn2)c1F.Cl [Example 433] | 1.6 |
| C[C@@H](CC(N)=O)N[C@@H](c1ccc(Cl)c(Oc2ccc(C(N)=O)nc2)c1F)C1CC1.Cl [Example 456] | > 3 |
| CC[C@@H](N[C@@H](C)CC(N)=O)c1ccc(Cl)c(Oc2ccc(-c3ccn[nH]3)cc2)c1F.Cl [Example 417] | 0.91 |

same assay, conditions: Hepatitis C virus, Huh-7, 72 h, read-out: Activity EC50 (μM) (EC50 luciferase readout), Huh-7 replicon cells, 72 h; single value, or second value of a pair x:y

| Structure (SMILES) | EC50 [µM] |
| --- | --- |
| CC[C@@H](N[C@@H](C)CC(N)=O)c1ccc(Cl)c(Oc2ccc(C(N)=O)cc2)c1F.Cl [Example 444] | 0.82 |
| C[C@@H](CC(N)=O)N[C@@H](c1ccc(Cl)c(Oc2ccc(N)nc2)c1F)C1CC1.Cl [Example 454] | 0.16 |

same assay, conditions: Hepatitis C virus, Huh-7, replicon assay; set in line with previous observations; read-out: pre-determined EC50 set for the combination experiments

| Structure (SMILES) | EC50 [µM] |
| --- | --- |
| CC(C)(C)C#Cc1cc(N(C(=O)[C@H]2CC[C@H](C)CC2)[C@H]2CC[C@H](O)CC2)c(C(=O)O)s1 [VX-222, Lomibuvir, reference compound] | 0.003 |
| CC(C)(C)OC(=O)N[C@H]1CCCCC/C=C\[C@@H]2C[C@@]2(C(=O)NS(=O)(=O)C2CC2)NC(=O)[C@@H]2C[C@@H](OC(=O)N3Cc4cccc(F)c4C3)CN2C1=O [Danoprevir, reference compound] | 0.001 |

same assay, conditions: Huh-7 replicon cells, 72 h; single value, or second value of a pair x:y; read-out: Activity EC50 (μM) (EC50 luciferase readout)

| Structure (SMILES) | EC50 [µM] |
| --- | --- |
| CCC(NC1CCCNC1)c1ccc(F)c(Oc2ccccc2)c1F (centres unmarked) [Example 18] | 1.6 |
